Here are results for 14 compounds from PubChem BioAssay (NCI).

Among the test systems are KM12 colon; MCF7 breast; BT-549 breast; TK-10 renal; HOP-62 NSCLC; OVCAR-3 ovarian; MDA-MB-231 breast; IGROV1 ovarian; HCC-2998 colon; RPMI-8226 leukemia.
Holding throughout (experiment): inhibition of tumour cell growth, NCI panel, 48 h

The structures appear in SMILES notation.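 Values below derive from 48-hour exposures of cells grown in 96-well plates, with endpoints linearly interpolated between the two concentrations bracketing the appropriate inhibition level. GI50 = concentration required for 50% inhibition of growth. TGI is the concentration that stops growth completely.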

On to `CC(C)=CCC(O)C1=CC(=O)c2c(O)ccc(O)c2C1=O` (configuration not stated), for which the TGI with KM12 colon is 16.9 µM; in the assay on MCF7 breast, 2.11 µM; in the assay with BT-549 breast, 3.17 µM; with TK-10 renal it was 3.04 µM; with HOP-62 NSCLC it was 4.95 µM; with OVCAR-3 ovarian it was 2.55 µM. The figures for the TGI in the assay with MDA-MB-231 breast, in the assay with IGROV1 ovarian and in the assay with HCC-2998 colon were 4.71 µM, 3.31 µM and 3.68 µM, respectively.

`Cc1ccc(/C=C/C(=O)c2cccc3ccccc23)cc1`: the TGI in the assay on KM12 colon is 27.9 µM; with TK-10 renal, 28.5 µM; in the assay with HOP-62 NSCLC, 37.7 µM; with OVCAR-3 ovarian it was 31.7 µM; in the assay on RPMI-8226 leukemia, over 100 µM; in the assay with HCC-2998 colon, 37.7 µM.

As to `CCCCCCCCCCCCCCCC[N+](C)(C)Cc1ccccc1`, the GI50 is 1.13 µM with KM12 colon; 1.21 µM in the assay with OVCAR-3 ovarian; 1.38 µM in the assay with MDA-MB-231 breast; 0.209 µM in the assay on IGROV1 ovarian; 0.0516 µM in the assay on RPMI-8226 leukemia; 0.923 µM in the assay with HCC-2998 colon. Also, the TGI with KM12 colon is 2.42 µM; with OVCAR-3 ovarian, 2.53 µM; with MDA-MB-231 breast it was 3.32 µM; in the assay on IGROV1 ovarian, 0.533 µM; with RPMI-8226 leukemia, 0.239 µM; in the assay with HCC-2998 colon it was 2.38 µM.

Turning to `Cc1ccc(-n2c3nc(=O)[nH]c(=O)c-3cc3cc([N+](=O)[O-])ccc32)cc1`, the GI50 in the assay with KM12 colon was 3.79 µM; in the assay on BT-549 breast, 6.49 µM; in the assay with TK-10 renal, 29.3 µM; in the assay with HOP-62 NSCLC, 2.57 µM; in the assay with OVCAR-3 ovarian, 2.18 µM; in the assay with MDA-MB-231 breast, 17.8 µM. For the same compound, the GI50 with RPMI-8226 leukemia is 3.95 µM; with HCC-2998 colon it was 14.6 µM. Further, the TGI in the assay on KM12 colon stood at 16.1 µM; in the assay on BT-549 breast, 27.8 µM; in the assay with TK-10 renal it was 64.5 µM; in the assay with HOP-62 NSCLC, 11.8 µM; in the assay on OVCAR-3 ovarian, 4.79 µM; in the assay on MDA-MB-231 breast it was 44.2 µM. The TGI in the assay on RPMI-8226 leukemia turned out to be 21.3 µM; with HCC-2998 colon, 28.6 µM.

On to `C=CC[C@H](C[C@H](C[C@H](C[C@H](C[C@H](C[C@H](C[C@H](C[C@H](C[C@H](C[C@H](CCCCC)OC)OC)OC)OC)OC)OC)OC)OC)OC)OC`, for which the TGI with KM12 colon, in the assay with TK-10 renal, in the assay with HOP-62 NSCLC, in the assay on OVCAR-3 ovarian, in the assay on IGROV1 ovarian and in the assay with RPMI-8226 leukemia was over 100 µM in each case. The compound further registered a TGI with HCC-2998 colon of over 100 µM.

Consider `O=C(/C(=C/c1ccc([N+](=O)[O-])cc1)SCc1ccccc1)c1ccc(Cl)cc1`, for which the GI50 with KM12 colon was 2.34 µM; in the assay with BT-549 breast, 2.4 µM; in the assay with TK-10 renal, 5.11 µM; in the assay with HOP-62 NSCLC, 4.52 µM; with OVCAR-3 ovarian it was 1.91 µM; with MDA-MB-231 breast, 2.67 µM. Also, the GI50 in the assay on IGROV1 ovarian is 2.86 µM; in the assay with RPMI-8226 leukemia, 1.78 µM; in the assay with HCC-2998 colon, 1.97 µM. In addition, the TGI in the assay with KM12 colon came out at 6.91 µM; with BT-549 breast it was 6.39 µM; with TK-10 renal, 18.1 µM; in the assay with HOP-62 NSCLC, 17.7 µM; in the assay with OVCAR-3 ovarian, 4.29 µM; in the assay with MDA-MB-231 breast it was 10.2 µM. The TGI in the assay with IGROV1 ovarian was 11.6 µM; in the assay with RPMI-8226 leukemia, 5.03 µM; in the assay on HCC-2998 colon, 3.89 µM.

For the compound `COc1nc(NC2OC(COC(C)=O)C(OC(C)=O)C(OC(C)=O)C2OC(C)=O)c2c(OC(C)=O)cc(=O)oc2n1` (configuration not stated), the TGI in the assay with KM12 colon, in the assay with TK-10 renal, in the assay on HOP-62 NSCLC, in the assay with OVCAR-3 ovarian, in the assay on IGROV1 ovarian and in the assay on RPMI-8226 leukemia was over 100 µM in each case. Moreover, the TGI in the assay with HCC-2998 colon was over 100 µM.

For `CCc1c(OC(C)=O)c2c(NC3OCC(OC(C)=O)C(OC(C)=O)C3OC(C)=O)nc(SC)nc2oc1=O` (configuration not stated), the TGI with KM12 colon, in the assay with TK-10 renal, with HOP-62 NSCLC, in the assay on OVCAR-3 ovarian, with IGROV1 ovarian and in the assay with RPMI-8226 leukemia was over 100 µM each time. This compound showed a TGI with HCC-2998 colon of over 100 µM.

Regarding `O=C(Nc1ccccc1-c1nn(C(=S)Nc2ccccc2)c(=S)n(C(=S)Nc2ccccc2)c1=O)C(F)(F)F`, the TGI in the assay with KM12 colon is 52 µM; in the assay on TK-10 renal it was over 96.3 µM; in the assay with HOP-62 NSCLC, over 100 µM; with OVCAR-3 ovarian, over 72.5 µM; with IGROV1 ovarian, over 100 µM; in the assay on RPMI-8226 leukemia, 50.2 µM. In the assay on HCC-2998 colon, the TGI is over 72.5 µM.

Regarding `O=c1ccc2ccccc2cc1[O-].O=c1ccc2ccccc2cc1[O-].[O]=[U+2]=[O]`, the GI50 with KM12 colon was 7.15 µM; in the assay on TK-10 renal it was 17 µM; in the assay on HOP-62 NSCLC, 23.9 µM; in the assay on OVCAR-3 ovarian it was 8.28 µM; in the assay on IGROV1 ovarian it was 23.4 µM; in the assay with RPMI-8226 leukemia, 17 µM. Moreover, the TGI in the assay with KM12 colon is 69.7 µM; with TK-10 renal, 66.3 µM; in the assay on HOP-62 NSCLC, 53.8 µM; with OVCAR-3 ovarian it was 50.1 µM; in the assay with IGROV1 ovarian it was 84.5 µM; with RPMI-8226 leukemia, over 100 µM.

Turning to `O=C1CCC2(c3ccc(Cl)cc3)Nc3ccncc3N12` (configuration not stated), the TGI with KM12 colon, in the assay on BT-549 breast, with TK-10 renal, in the assay with OVCAR-3 ovarian, in the assay on MDA-MB-231 breast and in the assay with IGROV1 ovarian was over 10 µM throughout.

On to `O=c1c(-c2ccccc2)c2oc(c1-c1ccccc1)CSCc1cccc(c1)CSC2`, for which the TGI in the assay on KM12 colon is over 100 µM; with TK-10 renal, over 100 µM; in the assay on HOP-62 NSCLC it was 62.4 µM; in the assay with OVCAR-3 ovarian, 77 µM; in the assay on IGROV1 ovarian, over 100 µM; in the assay on RPMI-8226 leukemia, over 100 µM. Also, the TGI with HCC-2998 colon is over 100 µM.

Regarding `CCCCN(CCCC)C(=O)C(=O)C(C(=O)c1ccc(OC)cc1)c1ccc(OC)cc1` (configuration not stated), the TGI with KM12 colon, in the assay with TK-10 renal, in the assay with HOP-62 NSCLC, in the assay with OVCAR-3 ovarian, with IGROV1 ovarian and in the assay on HCC-2998 colon was over 100 µM throughout.

In the case of `CC(=O)O/N=C(/C)c1ccccc1O`, the TGI with KM12 colon, in the assay with TK-10 renal, in the assay with HOP-62 NSCLC, with OVCAR-3 ovarian, in the assay on IGROV1 ovarian and in the assay with RPMI-8226 leukemia was over 100 µM throughout. In addition, the TGI in the assay with HCC-2998 colon was over 100 µM.
